Measured values published in patent US20240207427A1, “SELECTIVE DRUG RELEASE FROM INTERNALIZED CONJUGATES OF BIOLOGICALLY ACTIVE COMPOUNDS” (priority 2021, published 2024).
Like-named read-outs stand apart in the source and are kept apart here.

What was measured:
Assay type in all cases: cell-based
[1] = tested on: renal carcinoma cells (786-O); assay: In vitro potency (CellTiter-Glo, 96 h), 786-O; conditions: Homo sapiens, 786-0, 96 h, CellTiter-Glo after 96 h exposure
Outline: (§1)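 Four-day continuous exposure at 37 °C to serially diluted ADC or free camptothecin payload, in RPMI 1640 with 20% FBS after 24 h pre-plating. Luminescent signal gave IC50 (ng/mL; nmol/L).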

[2] = tested on: melanoma cells (A2058); assay: In vitro potency (CellTiter-Glo, 96 h), A2058; conditions: Homo sapiens, A2058, 96 h, read-out: IC50 (nmol/L) A2058
Outline: (§2)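 Medium: RPMI 1640 + 20% FBS. Pre-seeding: 24 h. Treatment: ADC or CPT free drug serial dilutions, 96 h, 37 °C. Read-out: luminescence; IC50 in ng/mL and nmol/L.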

[3] = tested on: pancreatic cancer cells (BxPC3); assay: In vitro potency (CellTiter-Glo, 96 h), BxPC3; conditions: Homo sapiens, BXPC-3, 96 h, CellTiter-Glo after 96 h exposure
Outline: (§3)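 IC50 (ng/mL or nmol/L) derived from CellTiter-Glo luminescence after 96 h exposure at 37 °C to serial dilutions of ADC or CPT free drug. Log-phase cells had been plated 24 h beforehand in RPMI 1640 containing 20% FBS.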

[4] = tested on: non-small-cell lung cancer cells (Calu1); assay: In vitro potency (CellTiter-Glo, 96 h), Calu1; conditions: Homo sapiens, Calu-1, 96 h, read-out: IC50 (nmol/L) Calu1
Outline: as §2

[5] = tested on: anaplastic large cell lymphoma cells (DEL); assay: In vitro potency (CellTiter-Glo, 96 h), DEL
Outline: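 Growth inhibition after 96 h at 37 °C with test article, measured by luminescence; cells in RPMI 1640, 20% FBS.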

[6] = tested on: anaplastic large cell lymphoma cells (DELBVR); assay: In vitro potency (CellTiter-Glo, 96 h), DELBVR
Outline: as §1

[7] = tested on: anaplastic large cell lymphoma cells (Karpas299); assay: In vitro potency (CellTiter-Glo, 96 h), Karpas299; conditions: Homo sapiens, KARPAS-299, 96 h, CellTiter-Glo after 96 h exposure
Outline: as §1

[8] = tested on: Hodgkin's lymphoma cells (L540cy); assay: In vitro potency (CellTiter-Glo, 96 h), L540cy
Outline: as §1

[9] = tested on: Ls174T cells; assay: In vitro potency (CellTiter-Glo, 96 h), Ls174T; conditions: Homo sapiens, LS174T, CellTiter-Glo after 96 h exposure
Outline: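 Antibody-drug conjugates, prepared as dilution series in culture medium, were added to cells seeded a day earlier in RPMI 1640 supplemented with 20% FBS. After four days at 37 °C, luminescence measured growth inhibition.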

[10] = tested on: breast cancer cells (MDA-MB-231); assay: In vitro potency (CellTiter-Glo, 96 h), MDA-MB-231; conditions: Homo sapiens, MDA-MB-231, 96 h, CellTiter-Glo after 96 h exposure
Outline: as §1

[11] = tested on: acute myeloid leukemia cells (MOLM-13); assay: In vitro potency (CellTiter-Glo, 96 h), MOLM-13; conditions: Homo sapiens, MOLM-13, 96 h, CellTiter-Glo after 96 h exposure
Outline: as §3

[12] = tested on: B-lymphocyte cancer cells (SU-DHL4); assay: In vitro potency (CellTiter-Glo, 96 h), SU-DHL-4; conditions: Homo sapiens, SU-DHL-4, 96 h, CellTiter-Glo after 96 h exposure
Outline: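 Log-phase cells were seeded for 24 h in RPMI 1640 with 20% FBS, then exposed to serially diluted antibody-drug conjugates or free camptothecin drug for 4 days at 37 °C. Growth inhibition was read by luminescence, and IC50 values were reported in ng/mL and nmol/L.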

[13] = CPT free drugs, Table 24, read-out: IC50 (nmol/L) 786-O
[14] = CPT free drugs, Table 24, CellTiter-Glo after 96 h exposure
[15] = CPT free drugs, Table 24, read-out: IC50 (nmol/L) BxPC3
[16] = CPT free drugs, Table 24, CellTiter-Glo after 96 h exposure, read-out: IC50 (nmol/L) DEL
[17] = CPT free drugs, Table 24, CellTiter-Glo after 96 h exposure, read-out: IC50 (nmol/L) DELBVR
[18] = CPT free drugs, Table 24, read-out: IC50 (nmol/L) Karpas299
[19] = CPT free drugs, Table 24, CellTiter-Glo after 96 h exposure, read-out: IC50 (nmol/L) L540cy
[20] = CPT free drugs, Table 24, read-out: IC50 (nmol/L) Ls174T
[21] = CPT free drugs, Table 24, read-out: IC50 (nmol/L) MDAMB231
[22] = CPT free drugs, Table 24, read-out: IC50 (nmol/L) MOLM-13
[23] = CPT free drugs, Table 24, read-out: IC50 (nmol/L) SU-DHL-4
[24] = read-out: IC50 (nmol/L) 786-O, CPT free drugs, Table 24
[25] = read-out: IC50 (nmol/L) BxPC3, CPT free drugs, Table 24
[26] = read-out: IC50 (nmol/L) DEL, CPT free drugs, Table 24, CellTiter-Glo after 96 h exposure
[27] = read-out: IC50 (nmol/L) DELBVR, CPT free drugs, Table 24, CellTiter-Glo after 96 h exposure
[28] = read-out: IC50 (nmol/L) Karpas299, CPT free drugs, Table 24
[29] = read-out: IC50 (nmol/L) L540cy, CPT free drugs, Table 24, CellTiter-Glo after 96 h exposure
[30] = 96 h, read-out: IC50 (nmol/L) Ls174T, CPT free drugs, Table 24
[31] = read-out: IC50 (nmol/L) MDAMB231, CPT free drugs, Table 24
[32] = read-out: IC50 (nmol/L) MOLM-13, CPT free drugs, Table 24
[33] = read-out: IC50 (nmol/L) SU-DHL-4, CPT free drugs, Table 24

SMILES	IC50 [1, 13] [nmol/L]	IC50 [2, 14] [nmol/L]	IC50 [3, 15] [nmol/L]	IC50 [4, 14] [nmol/L]	IC50 [5, 16] [nmol/L]	IC50 [6, 17] [nmol/L]	IC50 [7, 18] [nmol/L]	IC50 [8, 19] [nmol/L]	IC50 [9, 20] [nmol/L]	IC50 [10, 21] [nmol/L]	IC50 [11, 22] [nmol/L]	IC50 [12, 23] [nmol/L]	other results
CC[C@@]1(O)C(=O)OCc2c1cc1n(c2=O)Cc2c-1nc1ccc(SC(F)(F)F)cc1c2CN [Compound 2r]	21	11	75	168	4.4	8.4	37	15	15.6	19	23	16	–
CC[C@@]1(O)C(=O)OCc2c1cc1n(c2=O)Cc2c-1nc1cc(F)c(C)c(C)c1c2CN [Compound 2s]	–	–	–	–	–	–	–	–	–	–	–	–	IC50 [1, 24]: 3 nmol/L; IC50 [2]: 1 nmol/L; IC50 [3, 25]: 7 nmol/L; IC50 [4]: 22 nmol/L; IC50 [5, 26]: 1 nmol/L; IC50 [6, 27]: 1 nmol/L; IC50 [7, 28]: 2 nmol/L; IC50 [8, 29]: 2 nmol/L; IC50 [9, 30]: 3.7 nmol/L; IC50 [10, 31]: 2 nmol/L; IC50 [11, 32]: 18 nmol/L; IC50 [12, 33]: 2 nmol/L
CC[C@@]1(O)C(=O)OCc2c1cc1n(c2=O)Cc2c-1nc1ccc3c(c1c2CN)OCC3 [Compound 2t]	101	39	230	≥ 1000	18	33	133	43	18	73	179	51	–
CC[C@@]1(O)C(=O)OCc2c1cc1n(c2=O)Cc2c-1nc1ccc3c(c1c2CN)CCC3 [Compound 2u]	10	4	23	61	2	2	7	5	5.3	6	48.3	4	–
CC[C@@]1(O)C(=O)OCc2c1cc1n(c2=O)Cc2c-1nc1cc3c(cc1c2CN)CCC3 [Compound 2v]	33	19	165	247	9	14	37	19	17	34	350	33.8	–
CCc1cc2nc3c(c(CN)c2c(F)c1C)Cn1c-3cc2c(c1=O)COC(=O)[C@]2(O)CC [Compound 2w]	649	286	> 1000	> 1000	283	271	> 1000	922	843	> 1000	> 1000	958	–
CC[C@@]1(O)C(=O)OCc2c1cc1n(c2=O)Cc2c-1nc1cc(F)c(OC)c(F)c1c2CN [Compound 2x]	18	5	34	27	4	5	11	6	16	91	19	7	–
CC[C@@]1(O)C(=O)OCc2c1cc1n(c2=O)Cc2c-1nc1cc(F)c(C)c(Cl)c1c2CN [Compound 2y]	–	–	–	–	–	–	–	–	–	–	–	–	IC50 [1, 24]: 3 nmol/L; IC50 [2]: 1 nmol/L; IC50 [3, 25]: 6 nmol/L; IC50 [4]: 15 nmol/L; IC50 [5, 26]: 1 nmol/L; IC50 [6, 27]: 1 nmol/L; IC50 [7, 28]: 2 nmol/L; IC50 [8, 29]: 1 nmol/L; IC50 [9, 30]: 3 nmol/L; IC50 [10, 31]: 15 nmol/L; IC50 [11, 32]: 16 nmol/L; IC50 [12, 33]: 1 nmol/L
CC[C@@]1(O)C(=O)OCc2c1cc1n(c2=O)Cc2c-1nc1cc(OC)c(C)c(F)c1c2CN [Compound 2z]	> 1000	> 1000	> 1000	> 1000	> 1000	> 1000	> 1000	> 1000	> 1000	> 1000	> 1000	> 1000	–
CC[C@@]1(O)C(=O)OCc2c1cc1n(c2=O)Cc2c-1nc1ccc(O)cc1c2CN [Compound 3a]	52.3	16	135	388	10	14	59.4	18.2	37.1	38.5	58	16.4	–
CC[C@@]1(O)C(=O)OCc2c1cc1n(c2=O)Cc2c-1nc1cc(F)c(O)cc1c2CN [Compound 3b]	> 1000	> 1000	> 1000	> 1000	> 1000	> 1000	> 1000	> 1000	> 1000	> 1000	> 1000	> 1000	–
CC[C@@]1(O)C(=O)OCc2c1cc1n(c2=O)Cc2c-1nc1cc(F)c(O)c3c1c2CNC3 [Compound 3c]	> 1000	> 1000	> 1000	> 1000	> 1000	> 1000	> 1000	> 1000	> 1000	> 1000	> 1000	> 1000	–
CC[C@@]1(O)C(=O)OCc2c1cc1n(c2=O)Cc2c-1nc1cc(F)c(O)c(F)c1c2CN [Compound 3d]	> 1000	> 1000	> 1000	> 1000	843	> 1000	> 1000	> 1000	> 1000	> 1000	> 1000	> 1000	–
